IC50 data for four compounds are collected here from ChEMBL document CHEMBL1138737, “High-resolution structures of human aldose reductase holoenzyme in complex with stereoisomers of the potent inhibitor Fidarestat: stereospecific interaction between the enzyme and a cyclic imide type inhibitor” (J Med Chem, 2004).

The assay has as its target Aldo-keto reductase family 1 member B1 (Homo sapiens, UniProt P15121). The assay is described as follows: Binding affinity for human Aldose reductase 2 expressed in Escherichia coli.
In general, IC50 refers to the concentration at which inhibition is half-maximal. Turning to `NC(=O)[C@H]1C[C@@]2(NC(=O)NC2=O)c2cc(F)ccc2O1` (mixture of isomers), the IC50 turned out to be 40 µM. `NC(=O)[C@H]1C[C@]2(NC(=O)NC2=O)c2cc(F)ccc2O1` [(R,S)-FIDARESTAT]: the IC50 turned out to be 0.57 µM.

Take `NC(=O)[C@@H]1C[C@@]2(NC(=O)NC2=O)c2cc(F)ccc2O1` [(S,R)-FIDARESTAT]: the IC50 is 11 µM. Compared with the last compound, the IC50 is about 19-fold higher.

In turn, `NC(=O)[C@@H]1C[C@]2(NC(=O)NC2=O)c2cc(F)ccc2O1` [FIDARESTAT] came in with an IC50 of 0.03 µM.
